Measured values from patent US10017681B2, “Corrosion inhibitors” (RHODIA OPERATIONS, priority 2014, dated 2018).
Read-outs that look alike come from different tables or passages of the source. Marks after values point to notes of the source that are not given here.

Columns and labels:
[1] = LPR (Linear Polarisation Resistance) bubble test, Example 2; conditions: 90/10 5% NaCl/Isopar M, 60° C., CO2
Protocol: (§1) Corrosion inhibition properties were screened using the LPR (Linear Polarisation Resistance) bubble test method and the film persistence of the surfactants was evaluated using a Rotating Cylinder Electrode (RCE). The conditions were the same in both tests.
(§2) A 90/10 brine (5% w/w NaCl) and Isopar M (C9-15 iso-paraffins) mixture at 60° C. was saturated with CO2. The electrodes were immersed in the brine and left for several hours to establish the base line corrosion rate before injecting the surfactant.
The corrosion rate at 15 hours was used to benchmark the efficacy of the formulations containing octyl phosphonic acid against a commercial corrosion inhibitor. Synergistic properties of the surfactant mixtures were identified by comparing them against the corrosion rates of the individual surfactants.
The surfactant ratios for the LPR/RCE measurements were 80/20 and 50/50 Cl/octyl phosphonic acid and compared against the individual surfactants.

[2] = RCE film persistence under high shear (4000 rpm), Example 2; conditions: high shear rates (4000 rpm)
Protocol: as §1, §2
A shear rate of 4000 rpm was used to simulate very high shear conditions in order to determine the film persistence properties of the surfactants.
The persistence of the surfactant corrosion inhibitor film was also assessed under high shear rates (4000 rpm).

[3] = Foam tendency (dynamic foam test, ASTM G170-06); assay type: physicochemical; conditions: 1000 ppm active; 50/50 v/v Isopar M and 5% NaCl, 25° C.
Protocol: Foam tendencies were investigated using the methods described in ASTM G170-06 (2012) ‘Standard Guide for Evaluating and Qualifying Oilfield and Refinery Corrosion Inhibitors in the Laboratory’.
A graduated dynamic foam test apparatus (1000 ml measuring cylinder) fitted with a No. 1 porosity gas sparge tube was used for the test. 1000 ppm of corrosion inhibitor was added to a 50/50 v/v brine (5% NaCl solution) and Isopar M mixture (200 ml) at ambient temperature (25° C.). The mixture was left for 10 minutes before immersing the sparge tube in the brine layer. Nitrogen gas (flow rate: 0.5 litre/min) was injected into the solution and the volume of foam produced was measured over a set period of time (10 minutes).
If the foam reached the 1000 ml mark (800 ml foam volume) before the 10 minutes had elapsed then the time taken for the foam to reach the 1000 ml mark (800 ml of foam) was recorded. The volume of foam produced after the allotted time was also recorded.
The foam persistence was determined by measuring the foam volume after 10 minutes.

[4] = Emulsion tendency (ASTM G-170); assay type: physicochemical; conditions: for Brine (ml) @ T = 30 mins / Isopar M (ml) @ T = 30 mins / Pad (ml) @ T = 30 mins / Emulsion Layer (%): 1000 ppm active, 50/50 v/v Isopar M and 5% NaCl, 25° C.; for Emulsion Layer (%): after 30 minutes
Protocol: The emulsification behaviours of the alkyl phosphonic acids were investigated using the standard test procedure, ASTM G-170. It will be appreciated that, in general, corrosion inhibition formulations which have a low tendency to form emulsions with hydrocarbons are preferred.
1000 ppm active corrosion inhibitor formulation was added to a 250 ml measuring cylinder containing 100 ml 50/50 v/v 5% NaCl and Isopar M respectively. The cylinder was sealed and shaken 100 times.
The mixture was allowed to rest and the emulsion and brine layer volumes were recorded. The brine, Isopar M and emulsion layers were measured at 5, 10 and 30 minutes respectively.

[5] = Rotating Cylinder Electrode (RCE) film persistency test (4000 rpm); conditions: 20 ppm active, 60° C.
Protocol: An RCE film persistency test was carried out as follows: • A clean jacketed RCE corrosion cell was fitted with an, auxiliary electrode, reference electrode, and gas sparge tube. • The cell was charged with 899.1 g of 5% NaCl brine. • The temperature of the circulator connected to the jacketed cell was set to 60° C. • A constant CO2 sparge of approx. 200 cm^3/min was passed through the brine in the RCE cell which was then left for 1 hour to reach equilibrium. • A C1018 mild steel coupon was washed in xylene and acetone to remove any vapour phase corrosion inhibitor and allowed to dry. • After the RCE cell reached equilibrium the mild steel coupon was connected to the RCE shaft and inserted into the RCE cell. • Isopar M 99.9 g was then carefully transferred into the cell so that it floated on top of the brine. (This is done at this stage to prevent the working electrode from becoming oil wet as a periscope is unavailable) • The rotator was turned on and set to 4000 rpm. (NB. This is the fastest speed achievable using current available equipment.) • Baseline corrosion data was collected for approximately 2.5 hours. • During this time a 2% (w/w active) stock solution of Rhodafac ASI 80 was made up in methanol. • After the baseline corrosion data was collected the stock solution was injected into the RCE cell at a concentration of 20 ppm (w/w active). • The corrosion rate in the cell was recorded for at least a further 12.5 hours.

[6] = 20 ppm active; 1500 rpm; 60° C., CO2
Protocol: An RCE film persistency test was carried out as follows: • A clean jacketed RCE corrosion cell was fitted with an auxiliary electrode, reference electrode, and gas sparge tube. • The cell was charged with 899.1 g of 5% NaCl brine. • The temperature of the circulator connected to the jacketed cell was set to 60° C. • A constant CO2 sparge of approx. 200 cm^3/min was passed through the brine in the RCE cell which was then left for 1 hour to reach equilibrium. • A C1018 mild steel coupon was washed in xylene and acetone to remove any vapour phase corrosion inhibitor and allowed to dry. • After the RCE cell reached equilibrium the mild steel coupon was connected to the RCE shaft and inserted into the RCE cell. • Isopar M 99.9 g was then carefully transferred into the cell so that it floated on top of the brine. (This is done at this stage to prevent the working electrode from becoming oil wet as a periscope is unavailable) • The rotator was turned on and set to 1500 rpm. • Baseline corrosion data was collected for approximately 2.5 hours. • During this time 2% (w/w active) stock solutions of samples 2 or 3 were made up in methanol.

[7] = Solubility of samples when making stock solutions; assay type: physicochemical; conditions: 2% (w/w active) stock solutions in methanol
[8] = Bubble test (LPR), Example 1; conditions: on its own
Protocol: A bubble test was carried out as follows: • Clean corrosion cells were fitted with a stirring bar, auxiliary electrode, reference electrode, gas sparge tube, and glass periscope. • Each cell was charged with 999 g of the desired corrosion fluid. In this instance a 5% NaCl brine and Isopar M oil phase was used in a 9:1 ratio. • The cells were placed in a water bath set at 60° C. and set to stir at approximately 300 rpm. • Each cell was connected to a constant sparge of CO2 approx. 60 cm^3/min and then left for 1 hour to reach equilibrium. • C1018 mild steel coupons were washed with xylene and acetone to remove any vapour phase corrosion inhibitor and allowed to dry. • After the cells reached equilibrium the mild steel coupons were connected to the working electrodes and inserted into each cell using the glass periscopes to avoid getting the electrodes oil wet. • The LPR run was started and baseline corrosion data was collected for approximately 2.5 hours. • During this time 2% (w/w product) stock solutions of samples 1&2 were made up in deionised water.
The skilled reader will appreciate that the bubble test can only be used to evaluate if a product acts as a corrosion inhibitor and to rank corrosion inhibitors in order of effectiveness. […]

[9] = Dynamic surface tension (maximum bubble pressure method); assay type: physicochemical; conditions: 1000 ppm (as active) in 5% NaCl, 25° C., surface age 30 seconds
Protocol: Dynamic Surface Tension measurements were therefore carried out using a Messtechnik SITA T60 tensiometer for mixtures of the alkyl phosphonic acids with selected surfactants (anionic and amphoteric) in 5% NaCl.
These tests were carried out using the maximum bubble pressure method (see ‘Exploiting Surfactant Synergies in the Development of Foamers for Gas Well Deliqufication’, K Hatchman, C Jones, B Downward, G Collins, A Fellows, Proceedings of Chemistry In The Oil Industry XII, Royal Society of Chemistry, 2011).
The surface tensions were measured for 1000 ppm (as active) at a surface age of 30 seconds (equilibrium conditions) and ambient temperature (25° C.).

Compound	Average corrosion rate [bubble test] (mils/y) ([1]; 4 ppm)	Average corrosion rate [weight loss] (mils/y) ([1]; 4 ppm)	Effciency at T = 15 (%) ([1]; 4 ppm)	Average corrosion rate [bubble test] (mils/y) ([1]; 20 ppm)	Average corrosion rate [weight loss] (mils/y) ([1]; 20 ppm)	Effciency at T = 15 (%) ([1]; 20 ppm)	Average corrosion rate [bubble test] (mils/y) ([2]; 4 ppm)	Average corrosion rate [weight loss] (mils/y) ([2]; 4 ppm)	Effciency at T = 15 (%) ([2]; 4 ppm)	Average corrosion rate [bubble test] (mils/y) ([2]; 20 ppm)	Average corrosion rate [weight loss] (mils/y) ([2]; 20 ppm)	Effciency at T = 15 (%) ([2]; 20 ppm)	Foam Volume after 10 minutes [3]	Time to 1000 ml (secs) [3]	Brine (ml) @ T = 30 mins [4]	Isopar M (ml) @ T = 30 mins [4]	Pad (ml) @ T = 30 mins [4]	Emulsion Layer (%) [4]	Surface tension at 30 second (mN/m) [9]	further results
CCCCCCCCCCCCP(=O)(O)O [Lauryl Phosphonic Acid (100%), Lauryl Phosphonic Acid]	174.2 mils/y	146.8 mils/y	27.6%	33.4 mils/y	58.5 mils/y	98.5%	174.2 mils/y	146.8 mils/y	27.6%	33.4 mils/y	58.5 mils/y	98.5%	0 mL	No foam	41 mL	12** ml	0 mL	0%	–	observation on the hydrocarbon layer ([4]; emulsification test, footnote): **Lauryl phosphonic acid appears to gel the hydrocarbon, effectively reducing the phase separation rate of the different layers
CCCCCCCCP(=O)(O)O [Octyl Phosphonic Acid (80%), Octyl Phosphonic Acid]	267.4 mils/y	244.3 mils/y	0%	49.1 mils/y	48.1 mils/y	greater than 95%	267.4 mils/y	244.3 mils/y	0%	49.1 mils/y	48.1 mils/y	96.3%	0 mL	No foam	–	–	–	–	–	Effciency at T = 15 (%) ([1]; 20 ppm, listed as OPA (80%)): 96.3%; Average corrosion rate (RCE test) ([5]; CO2): 89 mils/y; Average corrosion rate (Weight Loss) ([5]; CO2): 56 mils/y; Effciency at T = 15 ([5]; CO2): 93%; Effciency at T = 15 ([5]; CO2, listed as octylphosphonic acid): > 90%; Average corrosion rate (RCE test) [6]: 61 mils/y; Average corrosion rate (Weight Loss) [6]: 56 mils/y; Efficiency at T = 15 [6]: 96%; solubility in methanol [7]: fully soluble in methanol
ethylhexyl acid phosphate	–	–	–	–	–	–	–	–	–	–	–	–	–	–	–	–	–	–	–	corrosion inhibition properties [8]: no corrosion inhibition properties
CCCCCCCCP(=O)(O)O [Octyl Phosphonic Acid]	–	–	–	–	–	–	–	–	–	–	–	–	–	–	–	–	–	–	58.5* mN/m	–
CCCCCCCCCCCCP(=O)(O)O [Lauryl Phosphonic Acid]	–	–	–	–	–	–	–	–	–	–	–	–	–	–	–	–	–	–	38.8* mN/m	–
CCCCCCCCP(=O)(O)O [Octyl Phosphonic Acid (100%)—OPA, Octyl Phosphonic Acid]	–	–	–	–	–	–	–	–	–	–	–	–	–	–	50 mL	50 mL	0 mL	0%	–	–
